Assays:
[1] = In vivo pharmacokinetics and biodistribution of 131I-radiolabeled drugs in glioma-bearing mice; set-up: species or system BALB/c mice; conditions: [131I]-curcumin
Description: Labeling conditions were systematically optimized by varying pH, drug concentration, oxidant amount, and reaction time. […] Purification was achieved by RP-HPLC to remove free iodine and impurities. […] The radiochemical yield was determined by calculating the percentage of the total radioactivity attributed to the radio-iodinated compound, using the following equation [105, 106]: Radiochemical yield %=Activity of labeled compond/Total activity ×100
All animal procedures were conducted in accordance with arrive guidelines and were approved by the Research Ethics Committee at the Faculty of Pharmacy, The British university in Egypt, with approval number (EX-2508). Male BALB/c mice (6 weeks old, weighing 20–25 g) were utilized for the study. Prior to the start of experiments, animals were acclimatized for two weeks under controlled environmental conditions (25 ± 2 °C, 12 h light/dark cycle) in group-housed (3–5 mice/cage) polypropylene cages at the animal house of the Egyptian Atomic Energy Authority. […] For induction of brain tumor in mice, they were anesthetized through intraperitoneal injection of 0.1 mL of ketamine-xylazine solution containing ketamine HCl (25 mg/mL) and xylazine (2.5 mg/mL) as described in current protocols. To implant cells intracranially, a calibrated 26-gauge 701N Hamilton micro-syringe (Micromeasure B.V., The Hague, The Netherlands) was used to inject 5 µL of 2.5 × 10^6 cells of CT-2A glioma cell suspension intracranially through the post glenoid foramen as previously reported. The right auricle was slowly pushed forward during the procedure, exposing the site of insertion. The syringe was held at an appropriate angle, and the cell suspension was slowly injected over 30 s. On completion, the needle was removed gently while applying light finger pressure to prevent bleeding. Additional pressure was applied for an additional 30 s after the removal of the needle to achieve hemostasis.
One hundred and eighty BALB/c mice were randomly assigned into six experimental groups, each further divided into six subgroups (n = 5 per subgroup), corresponding to specific time points post-injection: 0.5, 1, 2, 4, 8, and 24 h. […] Formulations were prepared under aseptic conditions using sterile water for injection and a laminar flow hood.
At each time point, five mice per group were anesthetized using isoflurane, and blood samples were collected by cardiac puncture into pre-heparinized polypropylene tubes. Mice were then euthanized by CO2 inhalation, and organs including the brain, liver, and kidneys and others were excised, rinsed with physiological saline, gently blotted, and weighed. Tissue and plasma samples were analyzed for radioactivity using a well-type γ-scintillation counter (SR-7,Nuclear Enterprises Ltd., San Carlos, CA, USA) and data were expressed as the percentage of the injected dose per gram of tissue (%ID/g).
The mean radioactivity values (represented as % injected dose per gram of tissue, %ID/g) acquired at various time points were examined using PKSolver, a Microsoft Excel add-in, in order to evaluate the pharmacokinetic behavior and tissue distribution of the radiolabeled formulations. […] AUC values based on time-radioactivity data were calculated using the trapezoidal rule.
Two quantitative parameters were computed using the AUC values obtained from the biodistribution study in order to assess the targeting performance and tissue selectivity of the formulations. The following equation was used to calculate tumor targeting efficiency (%): Tumor targeting efficiency %= AUC0−24 glioma/AUC0−24 blood x100

U87 cells = assay: MTT assay for cell viability; format: cell-based; conditions: Homo sapiens, U-87 MG, 24 h incubation
Description: U87 cells were maintained in DMEM supplemented with 10% fetal bovine serum and antibiotics (100 U/mL penicillin, 100 µg/mL streptomycin) at 37 °C in a humidified 5% CO2 atmosphere under sterile conditions. To ensure accurate experimental comparisons, all experiments included two control groups: a negative control of cells incubated in drug-free medium, and a solvent control with cells exposed to drug-free medium containing 0.5% DMSO, to evaluate any potential solvent toxicity. Cell viability was determined using the MTT assay after a 24 h incubation of U87 cells with various drug formulations. These included free atorvastatin, free curcumin, a solution combining atorvastatin and curcumin, At-Cu LNCs and FA-At-Cu LNCs. Stock solutions (2 mg/mL) for individual free drugs and their combination were prepared in phosphate-buffered saline (PBS) containing 1% sterile DMSO to ensure complete solubilization, from which serial dilutions (25–800 µg/mL) were then made. At-Cu LNCs and FA-At-Cu LNCs were sonicated for 5 min prior to preparing their serial dilutions (0.025–250 µg/mL). […] The resultant formazan crystals were dissolved in acidified isopropanol, and absorbance was measured at 560 nm using PHERAstar microplate reader (BMG Labtech, Ortenberg, Germany). Cell viability was expressed as a percentage of untreated control cells, and half-maximal inhibitory concentrations (IC50) were calculated. […]

[2] = Solubility study of folic acid in acetone; format: physicochemical; conditions: sedimentation at 40 mg
Description: The optimized formulation, composed of 39.60% w/w solutol, 10.50% w/w oils and 16.60 mg total drugs, was selected using Design Expert® software based on achieving the smallest PS, then prepared and experimentally evaluated to verify agreement between predicted and actual values. […] Accordingly, LNCs functionalized with 10, 20, and 30 mg FA were prepared and assessed for PS, PDI, and ZP. […] This oily phase was then mixed with the aqueous phase (composed of 100 mg sodium chloride in 2.5 mL distilled water). Then the mixture was subjected to three thermal cycling intervals (85 °C and 55 °C) under magnetic stirring. Finally ice-cold water was added till 10 g formulation was obtained. Stirring then continued for 10 min at room temperature.

[3] = cited from earlier work
[4] = i.v. 2 mg/kg, glioma-bearing mice

Row | Compound | AUC (0–24 h) Intestine, curcumin ([1]; i.v.) [%ID*h/g tissue] | AUC (0–24 h) Spleen, curcumin ([1]; i.v.) [%ID*h/g tissue] | AUC (0–24 h) kidneys, curcumin ([1]; i.v.) [%ID*h/g tissue] | AUC (0–24 h) liver, curcumin ([1]; i.v.) [%ID*h/g tissue] | AUC (0–24 h) Blood, curcumin [1, 4] [%ID*h/g tissue] | AUC (0–24 h) Brain, curcumin [1, 4] [%ID*h/g tissue] | AUC (0–24 h) Glioma, curcumin [1, 4] [%ID*h/g tissue] | IC50 (U87 cells) [µg/mL] | Complete solubility in acetone [2] | Renal excretion of atorvastatin and its active metabolites [3]
1 | COc1cc(/C=C/C(=O)CC(=O)/C=C/c2ccc(O)c(OC)c2)ccc1O [curcumin, Curcumin] | 526.50 ± 111.63 | 7.07 ± 1.70 | 57.87 ± 12.47 | 711.50 ± 114.83 | 72.27 ± 15.44 | 1.47 ± 0.44 | 3.72 ± 1.34 | 724 ± 78.3 | – | –
2 | Nc1nc2ncc(CNc3ccc(C(=O)N[C@@H](CCC(=O)O)C(=O)O)cc3)nc2c(=O)[nH]1 [FA, Folic acid] | – | – | – | – | – | – | – | – | up to 30 mg | –
3 | CC(C)c1c(C(=O)Nc2ccccc2)c(-c2ccccc2)c(-c2ccc(F)cc2)n1CC[C@@H](O)C[C@@H](O)CC(=O)O [atorvastatin, Atorvastatin calcium] | – | – | – | – | – | – | – | 680 ± 17.2 | – | less than 2 % of the dose
